Assay results published in ChEMBL document CHEMBL1201862, “PubChem BioAssay data set” (2004).
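Cultured in 96-well plates, cells were exposed to test compound for 48 hours across five concentrations. At the GI50, growth is halved.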 Active and inactive are the calls of the source. Rule as the data show it: active = GI50 up to about 1.1 µM and inactive = higher.

Assays:
Assay in all cases: DTP human tumour cell line panel, 48 h
OVCAR-8 = tested on: OVCAR-8
HOP-92 = tested on: HOP-92
HCT-15 = tested on: HCT-15
M14 = tested on: M14
SF-539 = tested on: SF-539
EKVX = tested on: EKVX
ACHN = tested on: ACHN
T47D = tested on: T47D
NCI-H23 = tested on: NCI-H23
OVCAR-5 = tested on: OVCAR-5
HL-60 = tested on: HL-60
CCRF-CEM = tested on: CCRF-CEM
RPMI-8226 = tested on: RPMI-8226
Malme-3M = tested on: Malme-3M
SF-295 = tested on: SF-295
NCI-H460 = tested on: NCI-H460
CAKI-1 = tested on: CAKI-1
SF-268 = tested on: SF-268
DU-145 = tested on: DU-145
DLD-1 = tested on: DLD-1

SMILES | GI50 (OVCAR-8) | GI50 (HOP-92) | GI50 (HCT-15) [µM] | GI50 (M14) | GI50 (SF-539) | GI50 (EKVX) | GI50 (ACHN) | GI50 (T47D) | GI50 (NCI-H23) | GI50 (OVCAR-5) | GI50 (HL-60) | GI50 (CCRF-CEM) | GI50 (RPMI-8226) | GI50 (Malme-3M) | GI50 (SF-295) | GI50 (NCI-H460) | GI50 (CAKI-1) | GI50 (SF-268) | GI50 (DU-145) | GI50 (DLD-1)
Cc1cc(C)c2c(=N)c3ccccc3n(CCCCCCCCn3c4ccccc4c(=N)c4c(C)cc(C)nc43)c2n1 | 1.59 µM (inactive) | 1.26 µM (inactive) | 0.2 | 1.66 µM (inactive) | 1.78 µM (inactive) | 1.4 µM (inactive) | 1.56 µM (inactive) | 1.77 µM (inactive) | 1.46 µM (inactive) | 1.89 µM (inactive) | 0.433 µM (active) | 0.204 µM (active) | 0.239 µM (active) | 1.74 µM (inactive) | 1.5 µM (inactive) | 0.184 µM (active) | 1.7 µM (inactive) | 1.74 µM (inactive) | 1.64 µM (inactive) | –
COc1cc(C(C)c2cc3c(cc2OCCN)OCO3)cc(OC)c1OC (stereo not given) | > 100 µM (inactive) | – | > 100 | > 100 µM (inactive) | > 100 µM (inactive) | 36.2 µM (inactive) | > 100 µM (inactive) | – | 31.8 µM (inactive) | 46.6 µM (inactive) | 20 µM (inactive) | 35.2 µM (inactive) | 37.3 µM (inactive) | > 100 µM (inactive) | > 100 µM (inactive) | > 100 µM (inactive) | > 100 µM (inactive) | 73.8 µM (inactive) | – | 36 µM (inactive)
CCCCCCCCCC[C@@H](O)[C@@H]1CC[C@H]([C@H]2CC[C@@H]([C@@H](O)CCCCCCCCCC[C@H]3CC(CC(C)=O)C(=O)O3)O2)O1 (stereo not given in full) | 8.47 µM (inactive) | 14.7 µM (inactive) | 4.55 | 11.8 µM (inactive) | 10.8 µM (inactive) | 7.16 µM (inactive) | – | – | < 0.01 µM (active) | 18 µM (inactive) | < 0.01 µM (active) | 3.07 µM (inactive) | 1.01 µM (active) | 3.15 µM (inactive) | – | 15.7 µM (inactive) | 16.7 µM (inactive) | 1.62 µM (inactive) | – | 16.6 µM (inactive)
COC(=O)C1=C(C(=O)Nc2cccnc2Cl)N(c2ccc(OC)cc2[N+](=O)[O-])C(c2ccc(C)cc2)=CC1c1ccc(OC)cc1OC (stereo not given) | 8.79 µM (inactive) | 31.1 µM (inactive) | 4.27 | 13.7 µM (inactive) | 4.76 µM (inactive) | 21.9 µM (inactive) | 19.1 µM (inactive) | 10 µM (inactive) | 22.1 µM (inactive) | 29 µM (inactive) | 4.61 µM (inactive) | 4.53 µM (inactive) | 2.37 µM (inactive) | 12.6 µM (inactive) | 23.2 µM (inactive) | 23.9 µM (inactive) | 36.9 µM (inactive) | 24.6 µM (inactive) | 23 µM (inactive) | –
Cn1c(C2CCCc3c2c2ccccc2n3C)cc2ccccc21 (stereo not given) | > 318 µM (inactive) | 1.5 µM (inactive) | 43.1 | – | > 318 µM (inactive) | 115 µM (inactive) | > 318 µM (inactive) | – | 40.2 µM (inactive) | 136 µM (inactive) | 65.5 µM (inactive) | 140 µM (inactive) | – | 20.5 µM (inactive) | 70 µM (inactive) | 125 µM (inactive) | 115 µM (inactive) | 110 µM (inactive) | – | 126 µM (inactive)
C=CCN1C(=O)C(=O)N(CC=C)C(=O)C1=O | > 100 µM (inactive) | > 100 µM (inactive) | > 100 | > 100 µM (inactive) | > 100 µM (inactive) | > 100 µM (inactive) | – | – | > 100 µM (inactive) | > 100 µM (inactive) | > 100 µM (inactive) | > 100 µM (inactive) | > 100 µM (inactive) | > 100 µM (inactive) | > 100 µM (inactive) | > 100 µM (inactive) | > 100 µM (inactive) | > 100 µM (inactive) | – | > 100 µM (inactive)
COC(=O)/C(C#N)=C1\CCC(O)N1 (stereo not given) | > 100 µM (inactive) | – | – | > 100 µM (inactive) | > 100 µM (inactive) | > 100 µM (inactive) | > 100 µM (inactive) | – | > 100 µM (inactive) | > 100 µM (inactive) | > 100 µM (inactive) | > 100 µM (inactive) | > 100 µM (inactive) | > 100 µM (inactive) | > 100 µM (inactive) | > 100 µM (inactive) | > 100 µM (inactive) | > 100 µM (inactive) | – | > 100 µM (inactive)
C/C(=N/NC(N)=S)C(CN(C)C)C(C1=C(O)c2ccccc2OC1)c1ccccc1 (stereo not given) | > 100 µM (inactive) | – | > 100 | > 100 µM (inactive) | > 100 µM (inactive) | > 100 µM (inactive) | > 100 µM (inactive) | – | > 100 µM (inactive) | > 100 µM (inactive) | > 100 µM (inactive) | > 100 µM (inactive) | > 100 µM (inactive) | > 100 µM (inactive) | > 100 µM (inactive) | > 100 µM (inactive) | > 100 µM (inactive) | > 100 µM (inactive) | – | > 100 µM (inactive)
CC(C)C(=O)/C=C/c1ccc(Cl)cc1Cl | 10.5 µM (inactive) | 16.8 µM (inactive) | 12.2 | 8.28 µM (inactive) | 18.4 µM (inactive) | 16.8 µM (inactive) | 16.2 µM (inactive) | 13 µM (inactive) | 13.7 µM (inactive) | 16.9 µM (inactive) | 7.05 µM (inactive) | 5.09 µM (inactive) | > 100 µM (inactive) | 14.8 µM (inactive) | 16.9 µM (inactive) | 11.3 µM (inactive) | 12.2 µM (inactive) | 6.93 µM (inactive) | 14.2 µM (inactive) | –
O=C(O)C1CCC(=O)N1C(=O)C(Cl)c1ccccc1 (stereo not given) | > 100 µM (inactive) | > 100 µM (inactive) | > 100 | > 100 µM (inactive) | – | > 100 µM (inactive) | > 100 µM (inactive) | – | > 100 µM (inactive) | > 100 µM (inactive) | > 100 µM (inactive) | > 100 µM (inactive) | > 100 µM (inactive) | > 100 µM (inactive) | > 100 µM (inactive) | > 100 µM (inactive) | > 100 µM (inactive) | > 100 µM (inactive) | – | > 100 µM (inactive)
Cc1c(C(=O)C/C(=N\O)C(=O)Nc2cc(Cl)c(Cl)cc2Cl)[n+]([O-])c2ccccc2[n+]1[O-] | 8.91 µM (inactive) | 19.2 µM (inactive) | 8.17 | 4.5 µM (inactive) | 14.3 µM (inactive) | 22.9 µM (inactive) | 17.5 µM (inactive) | – | 20.9 µM (inactive) | 24.4 µM (inactive) | 16.1 µM (inactive) | 32.7 µM (inactive) | 9.33 µM (inactive) | 9.14 µM (inactive) | 25.9 µM (inactive) | 12.8 µM (inactive) | 34 µM (inactive) | 17.8 µM (inactive) | – | 22 µM (inactive)
Cc1c2c(ccc3ccccc32)c[n+]2ccccc12 | 12.4 µM (inactive) | 40.6 µM (inactive) | 86.9 | 19.7 µM (inactive) | 13.9 µM (inactive) | – | 44.4 µM (inactive) | – | 4.15 µM (inactive) | 55.7 µM (inactive) | 28.4 µM (inactive) | 11 µM (inactive) | 32.1 µM (inactive) | 2.25 µM (inactive) | 3.78 µM (inactive) | > 10 µM (inactive) | > 100 µM (inactive) | 2.01 µM (inactive) | – | 9.75 µM (inactive)
N=c1c2ccccc2sc2nc3ccccc3n12 | > 100 µM (inactive) | > 100 µM (inactive) | – | – | > 100 µM (inactive) | 86.1 µM (inactive) | > 100 µM (inactive) | – | > 100 µM (inactive) | > 100 µM (inactive) | > 100 µM (inactive) | > 100 µM (inactive) | – | > 100 µM (inactive) | > 100 µM (inactive) | > 100 µM (inactive) | 48.6 µM (inactive) | > 100 µM (inactive) | – | > 100 µM (inactive)
Nc1ccc2n[se]nc2c1 | > 100 µM (inactive) | – | > 100 | > 100 µM (inactive) | > 100 µM (inactive) | > 100 µM (inactive) | > 100 µM (inactive) | – | > 100 µM (inactive) | > 100 µM (inactive) | 42.4 µM (inactive) | > 100 µM (inactive) | > 100 µM (inactive) | > 100 µM (inactive) | > 100 µM (inactive) | > 100 µM (inactive) | > 100 µM (inactive) | > 100 µM (inactive) | – | > 100 µM (inactive)
COc1ccc(C2[C@@H](Cl)C(=O)N2c2ccc(OC)cc2)cc1 (stereo not given in full) | 46.2 µM (inactive) | 11.6 µM (inactive) | – | – | 19.8 µM (inactive) | > 100 µM (inactive) | 41.8 µM (inactive) | – | > 100 µM (inactive) | > 100 µM (inactive) | 20.4 µM (inactive) | 39.1 µM (inactive) | 98.6 µM (inactive) | 45.9 µM (inactive) | 28.7 µM (inactive) | 51.4 µM (inactive) | 30.4 µM (inactive) | > 100 µM (inactive) | – | 89.5 µM (inactive)
O=C(O)c1cc2c(cc1S(=O)(=O)O)C1C(C3C2C2(Cl)C(Cl)=C(Cl)C3(Cl)C2(Cl)Cl)C2(Cl)C(Cl)=C(Cl)C1(Cl)C2(Cl)Cl (stereo not given) | 54.7 µM (inactive) | 29.2 µM (inactive) | 45 | 37.3 µM (inactive) | 25.4 µM (inactive) | 30.2 µM (inactive) | > 100 µM (inactive) | 33.2 µM (inactive) | 26.4 µM (inactive) | 23.3 µM (inactive) | 2.43 µM (inactive) | 0.173 µM (active) | 32.6 µM (inactive) | 64.7 µM (inactive) | 23.2 µM (inactive) | 34.6 µM (inactive) | > 100 µM (inactive) | 58.7 µM (inactive) | 48.1 µM (inactive) | –
